Assay results: ChEMBL document CHEMBL3232798, “Synthesis and antimycobacterial activities of some new thiazolylhydrazone derivatives” (Bioorg Med Chem Lett, 2014)
≈ marks a conversion by molar mass, not a printed value.

Assays:
[1] = system: Mycobacterium tuberculosis; assay: Antimycobacterial activity against Mycobacterium tuberculosis H37Rv by microplate alamar blue assay; assay type: functional
[2] = Cytotoxicity against human THP1 cells at 50 ug/ml by MTT assay; assay type: cell-based; conditions: THP-1 cells, read-out: INH

Compound: C(=N\Nc1nc(-c2ccccc2)cs1)/c1ccc(-n2ccnc2)cc1
- MIC [1]: 72.5 µM (≈ 25 µg/mL)
- cytotoxicity at 50 ug/ml [2]: 21.8%

Compound: CO[C@H]1/C=C/O[C@@]2(C)Oc3c(C)c(O)c4c(O)c(c(/C=N/N5CCN(C)CC5)c(O)c4c3C2=O)NC(=O)/C(C)=C\C=C\[C@H](C)[C@H](O)[C@@H](C)[C@@H](O)[C@@H](C)[C@H](OC(C)=O)[C@@H]1C [RIFAMPIN]
- MIC [1]: 0.12 µM (≈ 0.0988 µg/mL)

Compound: Brc1ccc(-c2csc(N/N=C/c3ccc(-n4cncn4)cc3)n2)cc1
- MIC [1]: 29.5 µM (≈ 12.5 µg/mL)
- cytotoxicity at 50 ug/ml [2]: 32.6%

Compound: Cc1ccc(-c2csc(N/N=C/c3ccc(-n4ccnc4)cc3)n2)cc1
- MIC [1]: 33 µM (≈ 11.9 µg/mL)
- cytotoxicity at 50 ug/ml [2]: 36%

Compound: O=[N+]([O-])c1ccc(-c2csc(N/N=C/c3ccc(-n4ccnc4)cc3)n2)cc1
- MIC [1]: 1.03 µM (≈ 0.402 µg/mL)
- cytotoxicity at 50 ug/ml [2]: 16.4%

Compound: COc1ccc(-c2csc(N/N=C/c3ccc(-n4cncn4)cc3)n2)cc1
- MIC [1]: 16.6 µM (≈ 6.26 µg/mL)
- cytotoxicity at 50 ug/ml [2]: 23%

Compound: Fc1ccc(-c2csc(N/N=C/c3ccc(-n4cncn4)cc3)n2)cc1
- MIC [1]: 4.29 µM (≈ 1.56 µg/mL)
- cytotoxicity at 50 ug/ml [2]: 35.9%

Compound: C(=N\Nc1nc(-c2ccccc2)cs1)/c1ccc(-n2cncn2)cc1
- MIC [1]: 72.2 µM (≈ 25 µg/mL)
- cytotoxicity at 50 ug/ml [2]: 28.4%

Compound: Clc1ccc(-c2csc(N/N=C/c3ccc(-n4ccnc4)cc3)n2)c(Cl)c1
- MIC [1]: 15.1 µM (≈ 6.26 µg/mL)
- cytotoxicity at 50 ug/ml [2]: 28.8%

Compound: Fc1ccc(-c2csc(N/N=C/c3ccc(-n4ccnc4)cc3)n2)cc1
- MIC [1]: 4.3 µM (≈ 1.56 µg/mL)
- cytotoxicity at 50 ug/ml [2]: 18.7%

Compound: COc1ccc(-c2csc(N/N=C/c3ccc(-n4ccnc4)cc3)n2)cc1
- MIC [1]: 4.16 µM (≈ 1.56 µg/mL)
- cytotoxicity at 50 ug/ml [2]: 26.8%

Compound: O=[N+]([O-])c1ccc(-c2csc(N/N=C/c3ccc(-n4cncn4)cc3)n2)cc1
- MIC [1]: 3.99 µM (≈ 1.56 µg/mL)
- cytotoxicity at 50 ug/ml [2]: 12.9%

Compound: Clc1ccc(-c2csc(N/N=C/c3ccc(-n4cncn4)cc3)n2)c(Cl)c1
- MIC [1]: 3.76 µM (≈ 1.56 µg/mL)
- cytotoxicity at 50 ug/ml [2]: 8.9%

Compound: CC[C@@H](CO)NCCN[C@@H](CC)CO [ETHAMBUTOL]
- MIC [1]: 7.65 µM (≈ 1.56 µg/mL)

Compound: Clc1ccc(-c2csc(N/N=C/c3ccc(-n4ccnc4)cc3)n2)cc1
- MIC [1]: 8.22 µM (≈ 3.12 µg/mL)
- cytotoxicity at 50 ug/ml [2]: 32.1%

Compound: Brc1ccc(-c2csc(N/N=C/c3ccc(-n4ccnc4)cc3)n2)cc1
- MIC [1]: 59.1 µM (≈ 25.1 µg/mL)
- cytotoxicity at 50 ug/ml [2]: 36.8%

Compound: Cc1ccc(-c2csc(N/N=C/c3ccc(-n4cncn4)cc3)n2)cc1
- MIC [1]: 4.33 µM (≈ 1.56 µg/mL)
- cytotoxicity at 50 ug/ml [2]: 13.6%

Compound: Clc1ccc(-c2csc(N/N=C/c3ccc(-n4cncn4)cc3)n2)cc1
- MIC [1]: 8.2 µM (≈ 3.12 µg/mL)
- cytotoxicity at 50 ug/ml [2]: 28.4%

Compound: NNC(=O)c1ccncc1 [ISONIAZID]
- MIC [1]: 0.36 µM (≈ 0.0494 µg/mL)
